According to paper PMC13168289, “Potent acridone antimalarial against all three life stages of Plasmodium” (Nature Communications, 2026):
pIC50: −log10 of the molar value. Where two headings read alike, the source gives them in different places.

Experiments:
[1] = design: method as in reviewer #3 remark; conditions: in humans; ref reviewer #3 remark; cited from earlier work
[2] = cited from earlier work
[3] = test system: blood-stage P. yoelii; experiment: 4-day suppression murine model, oral; assay type: in vivo, P. yoelii in CF1 mice
Source text: Animals were housed at the VAPORHCS in Thoren Maxi-Miser microisolator cages (78 sq. in. floor space) with a maximum density of five females or four males per cage. Cages were maintained on a 12-h light/dark cycle and provided with autoclaved nesting materials (nestlets) for environmental enrichment. All mice had ad libitum access to food and water. Four- to five-week-old female and male outbred CF1 mice (Charles River Laboratories, Raleigh, NC, USA) were randomly assigned to treatment and control groups using a simple randomization procedure (e.g., computer-generated random numbers) to ensure balanced distribution of baseline body weights and starting parasitemia levels across all cohorts. Groups of four mice (n = 4, mean body weight of each group was ~30 g) were infected intravenously with 3.5 × 10^4 P. yoelii (Kenya strain, MRA-428) from a donor animal. Drug administration commenced the day after the animals were inoculated (Day 1). The test drug or the drug combination was dissolved in PEG-400 and administered by oral gavage once daily for 4 successive days in the 4-day suppression model, but only once on Day 1 in the single-dose cure model. Blood was collected via the tail vein with the aid of a syringe needle on Day 5 and then at weekly intervals through Day 28. Blood films were Giemsa-stained and examined microscopically to determine the level of parasitemia. All mice were observed daily to assess clinical signs. Animals with observable parasitemia following the experiments were euthanized; animals cleared of parasitemia from their bloodstream were observed daily with assessment of parasitemia performed weekly until Day 28, at which point, the animal(s) were scored as cured of the infection and then humanely euthanized. All treated mice with a negative smear on Day 28 were considered cured (100% protection). […]

[4] = test system: fresh P. falciparum isolates; experiment: Ex vivo 72-h growth inhibition assay with SYBR Green detection; assay type: cell-based, Plasmodium falciparum
Protocol: Isolates were collected from patients with uncomplicated falciparum malaria in Bobo-Dioulasso, Burkina Faso and Tororo, Uganda. For parasite culture, parasitemia was identified with Giemsa-stained thin films using a light microscope. […] Isolates were stored at 4 °C and assayed within 24 h of collection. […] Study compounds were dissolved in DMSO as 10 mM stocks and stored at -20 °C. Drugs were serially diluted, including drug-free and parasite-free control wells, with concentrations optimized to capture full dose-response curves. Cultures were diluted with uninfected O^+ erythrocytes to achieve 0.2% parasitemia and 2% hematocrit. After 72 h, wells were resuspended, and culture from each well was transferred to 96-well plates containing SYBR Green lysis buffer and mixed. Plates were incubated for 1 h in the dark at room temperature, and fluorescence was measured with a plate reader (485 nm excitation and 530 nm emission).

[5] = test system: luciferase-expressing P. berghei sporozoites; experiment: liver-stage prophylaxis murine model with IVIS bioluminescence imaging; assay type: in vivo, P. berghei in Albino C57BL/6 mice; conditions: Days -1, 0, 1
Source text: Four- to six-week-old female inbred Albino C57BL/6 mice (18–22 g, Jackson Laboratories, Bar Harbor, ME, USA) were utilized. Animals were assigned unique study numbers via ear tags and cage cards and were randomly assigned to treatment or control groups (n = 5 per group) using a weigh-stratified randomization procedure. All animals were quarantined and acclimatized for 7 days prior to study initiation and were housed in a 12:12 light/dark cycle with food and water provided ad libitum. Mice were infected intravenously with 10^4 luciferase-expressing P. berghei sporozoites (ANKA strain) via tail vein injection on Day 0. Drugs were dissolved in PEG-400 and administered orally once per day on Day -1, Day 0, and Day 1. […] Infection reduction was assessed by comparing the bioluminescence signals emitted by treated groups with signals emitted by the vehicle control-treated group at that time point. Later blood-stage parasitemia was determined via flow cytometry. […] Long-term blood-stage efficacy was evaluated starting on Day 6 post-infection and continued for up to 31 days using flow cytometry.
In vivo antimalarial efficacy studies were performed as described above.

[6] = test system: P. falciparum K13 mutant parasites SP045 and SP060; experiment: Growth, Resistance, and Recovery Assay (GRRA), ring-stage survival dose-response; assay type: cell-based, Plasmodium falciparum; conditions: read-out: GRRA50
Protocol: These isolates carry the validated R561H Kelch 13 propeller domain mutation associated with delayed parasite clearance in East Africa[24],[25]. Using the 6-hour GRRA[23], all strains were thawed, frozen, and cultured under standard conditions at 5% hematocrit. Samples parasitemia was measured by flow cytometry. Parasite cultures that were predominantly segmented schizonts were synchronized using a single Percoll layer method. Cultures that met quality control requirements of ≥70% early ring stage and ≥1% parasitemia were adjusted to 0.25% parasitemia at 2% hematocrit. […] The GRRA50 implements 11 RSA experiments to generate a dose-response curve for each parasite line per drug. Master mixes of samples were aliquoted into 2 technical replicates of 275 µL each in 96 well plates (2 treated each condition, 2 untreated). At 6 h post-exposure, 200 µL of media was removed from the wells and replaced with 200 µL of incomplete media and spun for 3 min at 800 g to rinse. The rinse was repeated a total of 3 times, after which 200 µL complete media was added back to the wells. At 120 h post-treatment, thin microscopy smears were made using 2 µL of culture for each sample and 20 µL of culture was transferred to PCR strips and stored at −80 °C until qPCR quantification. A standard curve of known parasitemia was generated using the NF54 parasite line for each qPCR quantification for conversion from Cycle threshold (Ct) to parasitemia and comparison between qPCR experiments. Replicate viability was calculated according to the GRRA method. Each individual reaction mixture and cycling conditions were set to previously used methods. Ct was calculated using AB1 SDA 2.4.1. software. […] We find that commonly reported thresholds (cutoffs) for resistance (e.g., 1% survival in traditional RSA) may not be broadly applicable, especially with lower thresholds subject to potential artifacts due to markedly low survival rates of ART-sensitive and low-level ART-resistant parasites. Regular RSA relies on a single drug concentration, 700 nM. To gain a more fine-scale quantification to compare drug susceptibilities with relevance to therapeutic success and failure, we developed the GRRA50 to generate full dose-response curves for precise quantitative comparisons.

[7] = as stated in response to reviewers

In the case of `O=C1C(O)=C([C@H]2CC[C@H](c3ccc(Cl)cc3)CC2)C(=O)c2ccccc21` [ATV, atovaquone], the T1/2 [1] is given as 120 to 140 h, the T1/2 ([2]; healthy mice, ref PMID: 23292347) is given as “about 13 h” and the t1/2 ([2]; mice plasma) is given as ~ 13 h.

`O=c1c2ccc(Oc3ccc(OC(F)(F)F)cc3)cc2[nH]c2cc(Cl)cc(F)c12` [T111] showed an ED50 [3, 7] of 0.27 mg/kg/day, an ED90 [3, 7] of 0.39 mg/kg/day and an ED50 ([3]; female mice, oral) of 0.35 mg/kg/day. For the same compound, the ED90 ([3]; female mice, oral) was 0.50 mg/kg/day, the curative dose ([3]; four consecutive days, oral) was 10 mg/kg/day and the ED50 ([3]; male mice, oral) was 0.33 mg/kg/day. For the same compound, the ED90 ([3]; male mice, oral) was 0.46 mg/kg/day, the pIC50 ([4]; Burkina Faso isolates, n = 78, read-out: IC50 range) was 9.31 to 11.89 and the pIC50 ([4]; Burkina Faso isolates, n = 78, read-out: median IC50) was 10.21. For the same compound, the pIC50 ([4]; Uganda isolates, n = 81, read-out: IC50 range) was 9.18 to 11.42, the pIC50 ([4]; Uganda isolates, n = 81, read-out: median IC50) was 10.31 and the “protection from liver-stage infection” value ([5]; 1 mg/kg/day oral) was “did not clear liver-stage infection”. The “protection from liver-stage infection” value ([5]; 4 mg/kg/day oral) was “did not clear liver-stage infection”, the “protection from liver-stage infection” value ([5]; 10 mg/kg/day oral) was “full protection” and the pIC50 ([6]; SP045 (K13 V555A, ART-S)) was 9.11. The pIC50 ([6]; SP060 (K13 R561H, ART-R)) was 9.06.
